Earlier results as cited in patent publication US8961477B2, “Delivery of immune response modifier compounds” (3M Innovative Properties Company, priority 2003, dated 2015).

Experiments:
[1] = molecular target: T1, TLR 8 (Homo sapiens, UniProt Q9NR97); details: statement in words, no data given
T1 construct: expressed in transfected cells
T1 sequence (Q9NR97 27-1041): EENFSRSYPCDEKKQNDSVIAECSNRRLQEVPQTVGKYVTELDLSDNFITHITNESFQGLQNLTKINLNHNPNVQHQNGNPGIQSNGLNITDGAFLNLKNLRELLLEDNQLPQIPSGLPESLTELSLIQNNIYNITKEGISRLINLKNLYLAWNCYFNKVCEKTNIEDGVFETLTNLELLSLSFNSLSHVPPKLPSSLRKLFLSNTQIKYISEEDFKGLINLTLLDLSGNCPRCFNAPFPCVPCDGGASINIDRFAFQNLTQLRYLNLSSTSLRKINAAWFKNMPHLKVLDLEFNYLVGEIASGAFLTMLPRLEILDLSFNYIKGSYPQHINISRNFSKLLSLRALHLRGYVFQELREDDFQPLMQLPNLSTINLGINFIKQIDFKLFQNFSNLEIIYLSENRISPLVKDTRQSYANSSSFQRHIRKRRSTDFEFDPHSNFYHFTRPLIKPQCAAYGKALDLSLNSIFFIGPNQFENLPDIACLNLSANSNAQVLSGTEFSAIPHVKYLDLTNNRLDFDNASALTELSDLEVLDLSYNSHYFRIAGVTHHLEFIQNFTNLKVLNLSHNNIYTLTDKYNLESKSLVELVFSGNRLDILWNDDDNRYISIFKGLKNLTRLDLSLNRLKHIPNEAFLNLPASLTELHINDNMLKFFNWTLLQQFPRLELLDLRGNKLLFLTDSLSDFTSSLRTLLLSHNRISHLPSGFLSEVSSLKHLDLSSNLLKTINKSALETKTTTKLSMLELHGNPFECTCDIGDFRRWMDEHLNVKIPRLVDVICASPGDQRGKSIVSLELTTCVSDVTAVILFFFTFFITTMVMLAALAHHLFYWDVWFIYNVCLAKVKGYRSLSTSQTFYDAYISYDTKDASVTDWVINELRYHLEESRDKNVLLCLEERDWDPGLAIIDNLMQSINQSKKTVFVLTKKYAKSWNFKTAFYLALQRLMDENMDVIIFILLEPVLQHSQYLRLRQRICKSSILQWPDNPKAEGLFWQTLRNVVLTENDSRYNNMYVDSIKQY

[2] = molecular target: T2, TLR 7 (Homo sapiens, UniProt Q9NYK1); details: statement in words, no data given
T2 construct: expressed in transfected cells
T2 sequence (Q9NYK1 27-1049): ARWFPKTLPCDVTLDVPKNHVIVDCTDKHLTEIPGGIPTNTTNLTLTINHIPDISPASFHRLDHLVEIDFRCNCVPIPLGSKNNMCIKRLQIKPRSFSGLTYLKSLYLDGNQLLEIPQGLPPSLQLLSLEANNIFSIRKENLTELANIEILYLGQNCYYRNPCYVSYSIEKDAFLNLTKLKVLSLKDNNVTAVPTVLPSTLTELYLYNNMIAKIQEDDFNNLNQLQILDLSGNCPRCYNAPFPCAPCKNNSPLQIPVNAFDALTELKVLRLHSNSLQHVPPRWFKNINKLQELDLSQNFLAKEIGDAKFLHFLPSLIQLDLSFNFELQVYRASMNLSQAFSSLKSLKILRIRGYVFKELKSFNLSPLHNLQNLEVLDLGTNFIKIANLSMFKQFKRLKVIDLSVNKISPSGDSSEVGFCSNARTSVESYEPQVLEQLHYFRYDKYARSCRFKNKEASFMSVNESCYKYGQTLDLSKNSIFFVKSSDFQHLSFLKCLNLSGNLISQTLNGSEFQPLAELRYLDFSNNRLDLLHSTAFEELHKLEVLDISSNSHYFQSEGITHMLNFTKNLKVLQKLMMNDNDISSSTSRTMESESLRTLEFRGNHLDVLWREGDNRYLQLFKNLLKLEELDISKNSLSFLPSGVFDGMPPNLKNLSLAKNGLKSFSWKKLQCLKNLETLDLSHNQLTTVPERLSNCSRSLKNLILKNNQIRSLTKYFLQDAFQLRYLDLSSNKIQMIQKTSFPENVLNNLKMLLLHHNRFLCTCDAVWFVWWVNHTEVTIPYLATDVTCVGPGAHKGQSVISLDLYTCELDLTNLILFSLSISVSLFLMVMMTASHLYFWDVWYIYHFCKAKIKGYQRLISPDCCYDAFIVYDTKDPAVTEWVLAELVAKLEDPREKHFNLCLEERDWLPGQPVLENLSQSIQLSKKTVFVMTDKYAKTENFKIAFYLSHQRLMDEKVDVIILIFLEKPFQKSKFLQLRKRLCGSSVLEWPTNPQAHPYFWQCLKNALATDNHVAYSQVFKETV

[3] = molecular target: T3, TLR 6 (Homo sapiens, UniProt Q9Y2C9); details: statement in words, no data given
T3 construct: expressed in transfected cells
T3 sequence (Q9Y2C9 32-796): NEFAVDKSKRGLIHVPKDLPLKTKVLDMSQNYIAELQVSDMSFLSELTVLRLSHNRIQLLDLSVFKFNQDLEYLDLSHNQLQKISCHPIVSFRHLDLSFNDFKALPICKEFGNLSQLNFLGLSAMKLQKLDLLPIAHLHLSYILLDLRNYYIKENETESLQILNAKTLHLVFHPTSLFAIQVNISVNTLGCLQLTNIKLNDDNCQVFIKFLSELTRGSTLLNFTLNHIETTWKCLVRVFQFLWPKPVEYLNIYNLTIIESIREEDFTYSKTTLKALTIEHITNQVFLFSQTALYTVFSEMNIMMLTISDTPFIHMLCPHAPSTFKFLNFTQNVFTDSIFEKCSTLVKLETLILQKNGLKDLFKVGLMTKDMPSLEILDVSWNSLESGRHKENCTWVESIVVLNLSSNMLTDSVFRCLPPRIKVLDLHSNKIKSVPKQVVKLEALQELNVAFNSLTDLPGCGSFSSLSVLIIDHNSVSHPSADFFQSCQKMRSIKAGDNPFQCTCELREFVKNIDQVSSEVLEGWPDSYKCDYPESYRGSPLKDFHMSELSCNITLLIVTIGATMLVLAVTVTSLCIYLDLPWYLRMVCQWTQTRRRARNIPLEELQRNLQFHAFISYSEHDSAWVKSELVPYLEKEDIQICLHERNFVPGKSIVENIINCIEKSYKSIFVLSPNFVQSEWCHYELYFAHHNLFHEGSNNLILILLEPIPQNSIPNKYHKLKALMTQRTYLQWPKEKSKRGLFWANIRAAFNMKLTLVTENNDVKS

[4] = delivered systemically

| SMILES | TLR 8 agonist activity [1] | TLR 7 agonist activity [2] | TLR 6 activity [3] | CNS effect compared to imiquimod [4] |
| --- | --- | --- | --- | --- |
| CCOCc1nc2c(N)nc3c(c2n1CC(C)(C)O)CCCC3 [4-amino-2-(ethoxymethyl)-α,α-dimethyl-6,7,8,9-tetrahydro-1H-imidazo[4,5-c]quinoline-1-ethanol] | TLR 7 and TLR 8 agonist | TLR 7 and TLR 8 agonist | – | – |
| CC(C)(O)Cn1cnc2c(N)nc3ccccc3c21 [4-amino-α,α-dimethyl-1H-imidazo[4,5-c]quinoline-1-ethanol] | not a substantial TLR 8 agonist | predominantly a TLR 7 agonist | TLR 6 activity | much lower CNS effect |
